Tested on: barley
Assay: Post-emergence safener action in barley with the herbicide mesosulfuron-methyl
Assay type: in vivo
Conditions: greenhouse, visual scoring of damage
Text: The damage to the plants is scored visually using a scale of 0-100%, in comparison to control plants:
0%=no noticeable effect compared to the untreated plant
100%=the treated plants dies.
Seeds or rhizome pieces of monocotyledonous and dicotyledonous harmful plants and crop plants are placed in sandy loam soil in plastic pots, covered with soil and cultivated in the greenhouse under good growth conditions. Alternatively, harmful plants encountered in paddy rice cultivation are cultivated in pots in which the surface of the soil is covered by up to 2 cm of water. Three weeks after sowing, the test plants are treated at the three-leaf stage. The herbicide/safener active compound combinations according to the invention, formulated as emulsion concentrates, and in parallel tests the individual active compounds formulated in a corresponding manner, are sprayed at various dosages at a water application rate of […] (converted) onto the green parts of the plants, and, after the test plants were left to stand in the greenhouse for about 2 to 3 weeks under optimum growth conditions, the effect of the preparations is scored visually in comparison to untreated controls. In the case of rice or harmful plants encountered in the cultivation of rice, the active compounds are also added directly to the irrigation water (application analogously to the so-called granule application) or sprayed onto the plants and into the irrigation water. […]

| SMILES | safener action for the herbicide mesosulfuron-methyl |
| --- | --- |
| CC(C)C(C)NC(=O)c1ccc(C(F)(F)Cl)[nH]c1=O (centres unmarked) [Compound 163] | good safener action |
| CCN(CC)C(=O)c1ccc(C(F)(F)Cl)[nH]c1=O [Compound 128] | good safener action |
| CCNC(=O)c1ccc(C(F)(F)Cl)[nH]c1=O [Compound 116] | good safener action |
| CC(C)N(C)C(=O)c1ccc(C(F)(F)F)[nH]c1=O [Compound 13] | good safener action |
| C#CCN(C)C(=O)c1ccc(C(F)(F)Cl)[nH]c1=O [Compound 154] | good safener action |
| COCCNC(=O)c1ccc(C(F)(F)Cl)[nH]c1=O [Compound 171, 6-[Chloro(difluoro)methyl]-N-(2-methoxyethyl)-2-oxo-1,2-dihydropyridine-3-carboxamide] | good safener action |
| CCCNC(=O)c1ccc(C(F)(F)F)[nH]c1=O [Compound 3] | good safener action |
| CC(C)CNC(=O)c1ccc(C(F)(F)F)[nH]c1=O [Compound 30] | good safener action |
| CCCC(C)NC(=O)c1ccc(C(F)(F)Cl)[nH]c1=O (centres unmarked) [Compound 157] | good safener action |
| COCCNC(=O)c1ccc(C(F)(F)C(F)(F)F)[nH]c1=O [Compound 398] | good safener action |
| CCN(C)C(=O)c1ccc(C(F)(F)Cl)[nH]c1=O [Compound 124] | good safener action |
| O=C(NCC(F)(F)C(F)(F)F)c1ccc(C(F)(F)F)[nH]c1=O [Compound 25] | good safener action |
| COCCNC(=O)c1ccc(C(F)(F)F)[nH]c1=O [Compound 57] | good safener action |
| CCC(C)NC(=O)c1cc(Br)c(C(F)(F)F)[nH]c1=O (centres unmarked) [Compound 950] | good safener action |
| NC(=O)c1cc(Br)c(C(F)(F)Cl)[nH]c1=O [Compound 1023] | good safener action |
| O=C(NC1CC1)c1ccc(C(F)(F)Cl)[nH]c1=O [Compound 119] | good safener action |
| CNC(=O)c1ccc(C(F)(F)C(F)(F)F)[nH]c1=O [Compound 342] | good safener action |
| CNC(=O)c1ccc(C(F)(F)F)[nH]c1=O [Compound 1] | good safener action |
| CNC(=O)c1ccc(C(F)(F)Cl)[nH]c1=O [Compound 115] | good safener action |
| CCNC(=O)c1cc(Cl)c(C(F)(F)Cl)[nH]c1=O [Compound 571] | good safener action |
| CCC(CC)NC(=O)c1cc(I)c(C(F)(F)Cl)[nH]c1=O [Compound 1907, 6-[Chloro(difluoro)methyl]-N-(1-ethylpropyl)-5-iodo-2-oxo-1,2-dihydropyridine-3-carboxamide] | good safener action |
| O=C(NCC(F)(F)F)c1ccc(C(F)(F)F)[nH]c1=O [Compound 26] | good safener action |
| CNC(=O)c1cc(Br)c(C(F)(F)F)[nH]c1=O [Compound 910] | good safener action |
| COCCCNC(=O)c1ccc(C(F)(F)C(F)(F)F)[nH]c1=O [Compound 407] | good safener action |

| SMILES | safener action for the herbicide mesosulfuron-methyl |
| --- | --- |
| CCC(C)NC(=O)c1ccc(C(F)(F)C(F)(F)F)[nH]c1=O (centres unmarked) [Compound 382, N-(1-Methylpropyl)-2-oxo-6-(pentafluoroethyl)-1,2-dihydropyridine-3-carboxamide] | good safener action |
| CN(C)C(=O)c1ccc(C(F)(F)Cl)[nH]c1=O [Compound 123] | good safener action |
| CCCCCNC(=O)c1ccc(C(F)(F)Cl)[nH]c1=O [Compound 134] | good safener action |
| NC(=O)c1cc(Cl)c(C(F)(F)F)[nH]c1=O [Compound 455, 5-Chloro-2-oxo-6-(trifluoromethyl)-1,2-dihydropyridine-3-carboxamide] | good safener action |
| COCC(C)NC(=O)c1ccc(C(F)(F)C(F)(F)F)[nH]c1=O (centres unmarked) [Compound 405] | good safener action |
| CCCCNC(=O)c1cc(Br)c(C(F)(F)Cl)[nH]c1=O [Compound 1029] | good safener action |
| O=C(NCC1CC1)c1ccc(C(F)(F)F)[nH]c1=O [Compound 22] | good safener action |
| O=C(NC1CCC1)c1cc(Br)c(C(F)(F)Cl)[nH]c1=O [Compound 1030] | good safener action |
| O=C(NC1CC1)c1ccc(C(F)(F)F)[nH]c1=O [Compound 5] | good safener action |
| COC(CNC(=O)c1ccc(C(F)(F)Cl)[nH]c1=O)OC [Compound 168] | good safener action |
| CC(C)(C)CNC(=O)c1ccc(C(F)(F)Cl)[nH]c1=O [Compound 138] | good safener action |
| CCC(CC)NC(=O)c1ccc(C(F)(F)Cl)[nH]c1=O [Compound 165] | good safener action |
| CCCNC(=O)c1ccc(C(F)(F)C(F)(F)F)[nH]c1=O [Compound 344] | good safener action |
| NC(=O)c1ccc(C(F)(F)C(F)(F)Cl)[nH]c1=O [Compound 1481, 6-(2-Chloro-1,1,2,2-tetrafluoroethyl)-2-oxo-1,2-dihydropyridine-3-carboxamide] | good safener action |
| C#CCN(C)C(=O)c1ccc(C(F)(F)F)[nH]c1=O [Compound 40] | good safener action |
| CCCNC(=O)c1ccc(C(F)(F)Cl)[nH]c1=O [Compound 117] | good safener action |
| O=C(NC1CC1)c1ccc(C(F)(F)C(F)(F)F)[nH]c1=O [Compound 346] | good safener action |
| CCCCNC(=O)c1ccc(C(F)(F)C(F)(F)Cl)[nH]c1=O [Compound 1487] | good safener action |
| CCCC(C)NC(=O)c1ccc(C(F)(F)C(F)(F)F)[nH]c1=O (centres unmarked) [Compound 384] | good safener action |
| CCN(C(=O)c1ccc(C(F)(F)Cl)[nH]c1=O)C(C)C [Compound 130] | good safener action |
| O=C(NCC1CC1)c1ccc(C(F)(F)Cl)[nH]c1=O [Compound 136] | good safener action |
| O=C(NC1CCC1)c1ccc(C(F)(F)F)[nH]c1=O [Compound 7, N-Cyclobutyl-2-oxo-6-(trifluoromethyl)-1,2-dihydropyridine-3-carboxamide] | good safener action |
| COCC(C)NC(=O)c1cc(Br)c(C(F)F)[nH]c1=O (centres unmarked) [Compound 1201, 5-Bromo-6-(difluoromethyl)-N-(2-methoxy-1-methylethyl)-2-oxo-1,2-dihydropyridine-3-carboxamide] | good safener action |

— patent US9102623B2, “Pyridinecarboxamides, useful-plant-protecting composition comprising them and processes for their preparation and their use” (Bayer Cropscience AG, priority 2007, dated 2015)
